Data taken from ChEMBL document CHEMBL1201862, “PubChem BioAssay data set” (2004).
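Dose response: 5 concentrations. Exposure: 48 h. Format: 96-well plates. Endpoint: linear interpolation; highest concentration if not reached. GI50 = concentration required for 50% inhibition of growth.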 Active and inactive are the calls of the source. Rule as the data show it: active = GI50 up to about 1.1 µM and inactive = higher.

Legend:
Test in all cases: growth of human tumour cells (NCI), 48 h
KM12 = test system: KM12
K562 = test system: K562
KM-20L2 = test system: KM-20L2
SK-MEL-5 = test system: SK-MEL-5
RPMI-8226 = test system: RPMI-8226
BT-549 = test system: BT-549
SK-OV-3 = test system: SK-OV-3
UO-31 = test system: UO-31
PC-3 = test system: PC-3
NCI-H460 = test system: NCI-H460
ACHN = test system: ACHN
COLO 205 = test system: COLO 205
MDA-N = test system: MDA-N
MDA-MB-231 = test system: MDA-MB-231
UACC-257 = test system: UACC-257
HCC 2998 = test system: HCC 2998
HCT-116 = test system: HCT-116
XF498 = test system: XF498
SK-MEL-2 = test system: SK-MEL-2
TK-10 = test system: TK-10
MOLT-4 = test system: MOLT-4
M14 = test system: M14
UACC-62 = test system: UACC-62
HT-29 = test system: HT-29
LOX IMVI = test system: LOX IMVI
U-251 = test system: U-251
IGROV-1 = test system: IGROV-1
NCI/ADR-RES = test system: NCI/ADR-RES
SK-MEL-28 = test system: SK-MEL-28
RXF 393 = test system: RXF 393
Hs-578T = test system: Hs-578T
SR = test system: SR
HCT-15 = test system: HCT-15
CAKI-1 = test system: CAKI-1
SF-295 = test system: SF-295
OVCAR-8 = test system: OVCAR-8
A549 = test system: A549
A498 = test system: A498
Malme-3M = test system: Malme-3M
OVCAR-4 = test system: OVCAR-4
786-0 = test system: 786-0
T47D = test system: T47D
DLD-1 = test system: DLD-1
DMS-114 = test system: DMS-114
SNB-78 = test system: SNB-78
MCF7 = test system: MCF7
SF-268 = test system: SF-268
SNB-75 = test system: SNB-75
SNB-19 = test system: SNB-19
HOP-92 = test system: HOP-92
SW-620 = test system: SW-620
DU-145 = test system: DU-145
OVCAR-5 = test system: OVCAR-5
OVCAR-3 = test system: OVCAR-3
HOP-62 = test system: HOP-62
DMS-273 = test system: DMS-273
HL-60 = test system: HL-60
MDA-MB-435 = test system: MDA-MB-435
NCI-H522 = test system: NCI-H522
NCI-H226 = test system: NCI-H226
HOP-18 = test system: HOP-18
EKVX = test system: EKVX
SF-539 = test system: SF-539
SN12C = test system: SN12C
M19-MEL = test system: M19-MEL
NCI-H23 = test system: NCI-H23
LXFL 529 = test system: LXFL 529
CCRF-CEM = test system: CCRF-CEM

Measured: GI50

CCCCCCCCCCCCCCCCOP(=O)([O-])OCC[N+](C)(C)C [MILTEFOSINE]
10.5 µM: HCT-15
inactive: KM12 2.74 µM | K562 39 µM | KM-20L2 > 10 µM | SK-MEL-5 23.8 µM | RPMI-8226 6.1 µM | BT-549 5.35 µM | SK-OV-3 8.91 µM | UO-31 20.6 µM | PC-3 1.56 µM | NCI-H460 6 µM | ACHN 16 µM | COLO 205 5.58 µM | MDA-N 25.1 µM | MDA-MB-231 21.8 µM | UACC-257 30.6 µM | HCC 2998 5.38 µM | HCT-116 18.2 µM | XF498 17.9 µM | SK-MEL-2 21 µM | TK-10 2.1 µM | MOLT-4 8.73 µM | M14 16.4 µM | UACC-62 20.2 µM | HT-29 7.8 µM | LOX IMVI 21.5 µM | U-251 15.3 µM | IGROV-1 2.77 µM | NCI/ADR-RES 43.4 µM | SK-MEL-28 27.9 µM | RXF 393 5.9 µM | Hs-578T 19.3 µM | SR 6.21 µM | CAKI-1 10.3 µM | SF-295 7.69 µM | OVCAR-8 25.8 µM | A549 7.11 µM | A498 12.9 µM | Malme-3M 21.8 µM | OVCAR-4 18.2 µM | 786-0 9.55 µM | T47D 18.2 µM | DLD-1 18.9 µM | DMS-114 32.6 µM | SNB-78 47.6 µM | MCF7 24.9 µM | SF-268 22.1 µM | SNB-75 18.7 µM | SNB-19 17.7 µM | HOP-92 2.68 µM | SW-620 20.8 µM | DU-145 19.4 µM | OVCAR-5 8.17 µM | OVCAR-3 23.9 µM | HOP-62 14.9 µM | DMS-273 6.92 µM | HL-60 4.74 µM | MDA-MB-435 17.9 µM | NCI-H522 16.4 µM | NCI-H226 20.7 µM | HOP-18 39.4 µM | EKVX 27 µM | SF-539 30.5 µM | SN12C 16.1 µM | M19-MEL 15.6 µM | NCI-H23 33.3 µM

Nc1c(S(=O)(=O)c2ccc(Cl)cc2)c2nc3ccccc3nc2n2ccnc12
> 100 µM: HCT-15
inactive: KM12 > 100 µM | K562 > 100 µM | SK-MEL-5 > 100 µM | RPMI-8226 > 100 µM | SK-OV-3 38.4 µM | UO-31 > 100 µM | NCI-H460 63.4 µM | ACHN 40.3 µM | LXFL 529 > 100 µM | COLO 205 > 100 µM | UACC-257 > 100 µM | HCC 2998 > 100 µM | HCT-116 44.3 µM | XF498 65.8 µM | SK-MEL-2 > 100 µM | TK-10 24.9 µM | MOLT-4 > 100 µM | CCRF-CEM 39.4 µM | M14 > 100 µM | HT-29 > 100 µM | U-251 61.8 µM | IGROV-1 98.6 µM | SK-MEL-28 > 100 µM | SF-295 > 100 µM | OVCAR-8 48.4 µM | A549 85.9 µM | Malme-3M > 100 µM | OVCAR-4 14.5 µM | 786-0 36.2 µM | DLD-1 > 100 µM | DMS-114 54 µM | SNB-78 > 100 µM | SF-268 43.1 µM | SNB-75 31.6 µM | SNB-19 48.5 µM | HOP-92 > 100 µM | OVCAR-5 > 100 µM | OVCAR-3 > 100 µM | DMS-273 82 µM | HL-60 30.1 µM | NCI-H522 53.7 µM | NCI-H226 18.3 µM | HOP-18 22.8 µM | EKVX 93.8 µM | SF-539 17.4 µM | SN12C > 100 µM | M19-MEL > 100 µM | NCI-H23 > 100 µM

CCC1C(=O)OCc2c1cc1n(c2=O)CCC12OCCO2 (centres undefined)
> 100 µM: HCT-15
inactive: KM12 > 100 µM | K562 > 100 µM | KM-20L2 > 100 µM | SK-MEL-5 > 100 µM | RPMI-8226 > 100 µM | SK-OV-3 > 100 µM | UO-31 > 100 µM | NCI-H460 > 100 µM | ACHN > 100 µM | LXFL 529 > 100 µM | COLO 205 > 100 µM | UACC-257 > 100 µM | HCC 2998 63.8 µM | HCT-116 > 100 µM | XF498 > 100 µM | SK-MEL-2 > 100 µM | TK-10 > 100 µM | MOLT-4 > 100 µM | CCRF-CEM > 100 µM | M14 > 100 µM | UACC-62 > 100 µM | HT-29 > 100 µM | LOX IMVI > 100 µM | U-251 > 100 µM | IGROV-1 > 100 µM | SK-MEL-28 > 100 µM | SR > 100 µM | CAKI-1 > 100 µM | SF-295 > 100 µM | OVCAR-8 > 100 µM | A549 > 100 µM | A498 > 100 µM | OVCAR-4 > 100 µM | 786-0 > 100 µM | DLD-1 > 100 µM | DMS-114 > 100 µM | SNB-78 > 100 µM | SF-268 > 100 µM | SNB-75 > 100 µM | SNB-19 > 100 µM | HOP-92 > 100 µM | SW-620 > 100 µM | OVCAR-5 > 100 µM | HOP-62 > 100 µM | DMS-273 > 100 µM | HL-60 > 100 µM | NCI-H522 > 100 µM | NCI-H226 > 100 µM | EKVX > 100 µM | SF-539 > 100 µM | SN12C > 100 µM | M19-MEL > 100 µM | NCI-H23 > 100 µM
